Results as given in patent US11384065B2, “Heterocyclic compound as CSF-1R inhibitor and use thereof” (MEDSHINE DISCOVERY INC., priority 2018, dated 2022).

Tests used:
CSF-1R = CSF-1R (Homo sapiens (Human), UniProt P07333); assay: In vitro inhibitory activity on CSF-1R kinase (33P-ATP filter-binding, Reaction Biology Corporation); format: biochemical; details: CSF-1R 2.5 nM, filter-binding method
Method: Experimental Example 1: In Vitro Inhibitory Activity of the Compounds of the Present Invention on CSF-1R in Terms of Enzymology The compounds of the present invention for experiments were made in house, and their structural formulas were shown in the preparation examples of each compound. The experimental tests were conducted at Reaction Biology Corporation in the United States, and the experimental results were provided by the company. Experimental Reagents: Necessary reaction buffer: 20 mM hydroxyethylpiperazine ethanesulfonic acid (pH 7.5), 10 mM magnesium chloride, 1 mM EGTA, 0.02% Brij35, 0.02 mg/mL bovine serum albumin, 0.1 mM Na3VO4, 2 mM DTT, 1% DMSO. The necessary cofactors were added separately to the CSF-1R kinase reaction. Enzyme: the concentration of CSF-1R was 2.5 nM Treatment with the Compounds: The compound to be tested was formulated with 100% DMSO into a solution with a specific concentration, and serial dilution was performed with DMSO through the intelligent pipetting assistant Integra Viaflo Assist. Experimental Procedure: […] All necessary cofactors were added to the above reaction buffer; CSF-1R kinase was added to the above matrix solution and shaken gently; Using acoustic technology (Echo550; nanoliter range), a solution of the compound in DMSO was added to the above kinase reaction mixture, and the reaction solution was incubated at room temperature for 20 minutes; ^33P-ATP (specific activity, 10 μCi/μl) was added to the above kinase reaction mixture to initiate the reaction; The reaction solution was incubated at room temperature for 2 hours; The kinase activity was detected by the filter-binding method; The kinase activity was the ratio of the remaining kinase in the test sample to the vehicle (DMSO) group. IC50 values and profiles were obtained using Prism (GraphPad software).

[1] = Pharmacokinetic study after intravenous injection and oral administration (plasma, LC-MS/MS); format: in vivo, rats; details: for AUC(0-t) / C0 / Vd / clearance / half-life / Cmax: male, SD, rat, plasma
Source text: Example 2 Pharmacokinetic Study on Mice and Rats (PK)
The purpose of this experiment was to study the pharmacokinetics of the test article in the plasma of male C57BL/6J mice and SD rats after intravenous injection and oral administration.
The animals were randomly divided into two groups with 2 males in each group. The compounds were formulated into prescribed preparations. Preparations for intravenous injection were clear solutions, and oral preparations could be clear or homogeneous suspensions.
Whole blood samples were collected from the jugular vein puncture or saphenous vein of the animals 5 minutes, 15 minutes, 30 minutes, 1 hour, 2 hours, 4 hours, 6 hours, and 8 hours after administration. The whole blood sample was added to the centrifuge tube containing anticoagulant, and centrifuged at 3000 g for 15 minutes at 4° C. The supernatant of plasma was taken, frozen quickly on dry ice, and then stored in a −70° C.±10° C. refrigerator until LC-MS/MS analysis.
WinNonlin™ Version 6.3.0 (Pharsight, Mountain View, Calif.) pharmacokinetic software was used to process the plasma drug concentration data of the compounds with a non-compartmental model. The peak concentration (Cmax), peak time (Tmax) and quantifiable end time were obtained directly from the blood drug concentration-time profile.
The following pharmacokinetic parameters were calculated using the log-linear trapezoid method: Plasma clearance rate (CL), volume of distribution (Vd), elimination phase half-life (T1/2), average residence time of drug in the body from 0 to the end time point (MRT0-last), average residence time of the drug in the body from 0 to infinite time (MRT0-inf), area under the time-plasma concentration curve from 0 to the end time point (AUC0-last), area under the time-plasma concentration curve from 0 to infinite time (AUC0-inf) and bioavailability (F), C0 was the initial concentration.

Sequence of CSF-1R (P07333 20-972): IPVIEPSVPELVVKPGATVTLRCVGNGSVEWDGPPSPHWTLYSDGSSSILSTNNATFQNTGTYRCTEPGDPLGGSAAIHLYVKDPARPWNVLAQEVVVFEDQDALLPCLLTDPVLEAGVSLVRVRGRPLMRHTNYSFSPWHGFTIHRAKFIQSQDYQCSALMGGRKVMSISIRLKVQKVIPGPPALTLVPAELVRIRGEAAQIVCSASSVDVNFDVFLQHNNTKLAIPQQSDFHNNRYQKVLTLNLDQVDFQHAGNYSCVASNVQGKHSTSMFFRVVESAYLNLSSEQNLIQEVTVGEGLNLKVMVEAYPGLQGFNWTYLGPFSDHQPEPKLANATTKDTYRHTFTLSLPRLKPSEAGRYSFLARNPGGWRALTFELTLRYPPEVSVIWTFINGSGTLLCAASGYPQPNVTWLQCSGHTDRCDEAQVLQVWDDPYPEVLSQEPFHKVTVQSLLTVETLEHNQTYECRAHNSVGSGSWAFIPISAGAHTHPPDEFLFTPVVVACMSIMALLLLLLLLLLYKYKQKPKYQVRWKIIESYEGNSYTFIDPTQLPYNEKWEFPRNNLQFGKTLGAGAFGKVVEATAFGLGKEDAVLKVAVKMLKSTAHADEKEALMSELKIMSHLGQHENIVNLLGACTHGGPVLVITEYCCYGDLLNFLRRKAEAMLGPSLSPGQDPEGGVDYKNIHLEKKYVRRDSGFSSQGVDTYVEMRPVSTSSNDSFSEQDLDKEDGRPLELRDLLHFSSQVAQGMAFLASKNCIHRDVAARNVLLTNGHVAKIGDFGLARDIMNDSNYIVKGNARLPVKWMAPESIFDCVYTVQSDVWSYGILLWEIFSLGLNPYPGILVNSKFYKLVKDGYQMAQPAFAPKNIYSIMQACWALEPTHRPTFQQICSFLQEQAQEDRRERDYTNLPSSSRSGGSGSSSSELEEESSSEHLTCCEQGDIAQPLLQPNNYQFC

IC50 (CSF-1R) [nM]	Compound	other results
12.1	CNc1ccc(-c2cnc(Nc3ccn(C4CC4)c(=O)c3)cc2C)c2c1C(=O)NC2 [Compound 20]	
1.41	CNc1ccc(-c2cnc(Nc3ccc(N(C)C)nc3)cc2C)c2c1C(=O)NC2 [Compound 9]	
3.78	CNc1ccc(-c2cnc(Nc3ncc(C4CC4)cn3)cc2C)c2c1C(=O)NC2 [Compound 13]	
3.43	CNc1ccc(-c2cnc(Nc3ccc(OC4CC4)nn3)cc2C)c2c1C(=O)NC2 [Compound 18]	
	COc1ccc(-c2ccc(NC(=O)Nc3cccc(C)c3)cc2)c2c1C(=O)NC2 [Control compound, reference compound]	F ([1]; PO (10 mpk)): 3.92%; AUC(0-t) ([1]; 1 mg/kg, IV (1 mpk)): 0.918 µM·h; C0 ([1]; 1 mg/kg, IV (1 mpk)): 3.72 µM; Vd ([1]; 1 mg/kg, IV (1 mpk)): 1.48 L/kg; clearance ([1]; 1 mg/kg, IV (1 mpk)): 46.7 mL/min/kg; half-life ([1]; 1 mg/kg, IV (1 mpk)): 0.92 h; AUC(0-t) ([1]; 10 mg/kg, PO (10 mpk)): 0.333 µM·h; Cmax ([1]; 10 mg/kg, PO (10 mpk)): 0.104 µM
1.27	CNc1ccc(-c2cnc(NCc3ccc(C(F)(F)F)nc3)cc2C)c2c1C(=O)NC2 [Compound 4]	
2.61	CNc1ccc(-c2cnc(Nc3cnc(C4CC4)nc3)cc2C)c2c1C(=O)NC2 [Compound 10]	F ([1]; PO (10 mpk)): 106%; AUC(0-t) ([1]; 1 mg/kg, IV (1 mpk)): 18.7 µM·h; C0 ([1]; 1 mg/kg, IV (1 mpk)): 6.29 µM; Vd ([1]; 1 mg/kg, IV (1 mpk)): 0.495 L/kg; clearance ([1]; 1 mg/kg, IV (1 mpk)): 2.31 mL/min/kg; half-life ([1]; 1 mg/kg, IV (1 mpk)): 2.53 h; AUC(0-t) ([1]; 10 mg/kg, PO (10 mpk)): 198 µM·h; Cmax ([1]; 10 mg/kg, PO (10 mpk)): 33 µM
2.5	CNc1ccc(-c2cnc(Nc3ccc(C4CC4)cn3)cc2C)c2c1C(=O)NC2 [Compound 14]	
1.55	Cc1cc(NCc2ccc(C(F)(F)F)nc2)ncc1-c1ccc(N)c2c1CNC2=O [Compound 2]	
2.55	CNc1ccc(-c2cnc(Nc3cnc(OC4CC4)cn3)cc2C)c2c1C(=O)NC2 [Compound 19]	
1.68	CNc1ccc(-c2cnc(Nc3ccc(OC4CC4)nc3)cc2C)c2c1C(=O)NC2 [Compound 5]	
4.71	CNc1ccc(-c2cnc(Nc3ccc(C4CC4)nn3)cc2C)c2c1C(=O)NC2 [Compound 11]	
5.01	CNc1ccc(-c2cnc(Nc3ccc(C4(C#N)CC4)nc3)cc2C)c2c1C(=O)NC2 [Compound 6]	
1.87	CCOc1ccc(Nc2cc(C)c(-c3ccc(NC)c4c3CNC4=O)cn2)cn1 [Compound 7]	
1.89	CNc1ccc(-c2cnc(Nc3cnc(C4CC4)cn3)cc2C)c2c1C(=O)NC2 [Compound 12]	
0.82	CNc1ccc(-c2cnc(Nc3ccc(C4CC4)nc3)cc2C)c2c1C(=O)NC2 [Compound 15]	
2.49	CNc1ccc(-c2cnc(Nc3cnc(OC4CC4)nc3)cc2C)c2c1C(=O)NC2 [Compound 16]	
4.15	CNc1ccc(-c2cnc(Nc3ccc(OC4CC4)cn3)cc2C)c2c1C(=O)NC2 [Compound 17]	
24.5	CC(=O)Nc1ccc(-c2cnc(NCc3ccc(C(F)(F)F)nc3)cc2C)c2c1C(=O)NC2 [Compound 3]	
4.98	CNc1ccc(-c2cnc(Nc3ccc(OC(F)F)nc3)cc2C)c2c1C(=O)NC2 [Compound 8]	
3.06	Cc1cc(NCc2ccc(C(F)(F)F)nc2)ncc1-c1ccc(N(C)C)c2c1CNC2=O [Compound 1]	
